Values quoted from earlier work, collected in patent US12324430B2, “Topical antiseptic system” (INFECTION CONTAINMENT COMPANY, LLC, priority 2015, dated 2025).

Substance	water solubility (in words)
zinc glycerate	moderately water soluble
zinc picolinate	moderately water soluble
